Measurements published in patent publication US20060035966A1, “Irreversible selective androgen receptor modulators and methods of use thereof” (priority 2002, published 2006).
Like-named read-outs stand apart in the source and are kept apart here.

Key:
[1] = tested on: AR-expressing LNCaP prostate cancer cell line; test: Cytotoxicity, SRB assay, LNCaP; assay type: cell-based, human; conditions: Homo sapiens, LNCaP
Procedure: (§1) The SRB Assay was used to determine cell number during cytotoxocity experiments. The following protocol was used: • 1. […] Experimental cultures were cultured in 96-well microtiter plates (200 uL growth medium per well; 1,000-200,000 cells per well). • 3. Cultures were fixed with 50 uL 50% TCA (4° C.). (see cell fixation protocol for details). • 4. Fixed cells were stained with 50 uL 0.4% (wt/vol) SRB in 1% acetic acid for 10 minutes. • 5. SRB was removed and the cultures were quickly* rinsed 5 times with 1% acetic acid to remove unbound dye.** • 6. Cultures were air-dried overnight until there is no visible moisture. • 7. […] Absorbance was read at 540 nm. • * quickly performing rinsing process is to prevent desorption of protein-bound SRB • ** completely remove residual wash solution by sharply flicking plates over sink. Fixation of Cells Attached to the Plastic Substratum
(§2) The following protocol was used for fixing cells: • a. 50 uL of 50% TCA (4° C.) were gently layered on the top of growth medium in each well to make a final TCA concentration of 10%. • b. Cultures were incubated at 4° C. for 1 hour. • c. Cultures were washed 5 times with tap water to remove TCA, growth medium, low-molecular-weight metabolites, and serum protein. • d. Plates were air-dried until there was no visible moisture.

[2] = tested on: PPC-1 prostate cancer cell line; test: Cytotoxicity, SRB assay, PPC-1; assay type: cell-based, human; conditions: Homo sapiens
Procedure: as §1, §2

[3] = tested on: TCCSUP bladder cancer cell line; test: Cytotoxicity, SRB assay, TCCSUP; assay type: cell-based, human; conditions: Homo sapiens, TCC-SUP, read-out: IC50 TCCSUP
Procedure: as §1, §2

[4] = tested on: TSU prostate cancer cell line; test: Cytotoxicity, SRB assay, TSU; assay type: cell-based, human; conditions: Homo sapiens, read-out: IC50 TSU
Procedure: as §1, §2

CV-1 control cell line = test: Cytotoxicity, SRB assay, CV-1 control; assay type: cell-based, African green monkey; conditions: Chlorocebus sabaeus
Procedure: (§3) The SRB Assay was used to determine cell number during cytotoxocity experiments. The following protocol was used: • 1. Cells were detached with 0.25% trypsin. • 2. Experimental cultures were cultured in 96-well microtiter plates (200 uL growth medium per well; 1,000-200,000 cells per well). • 3. Cultures were fixed with 50 uL 50% TCA (4° C.). (see cell fixation protocol for details). • 4. Fixed cells were stained with 50 uL 0.4% (wt/vol) SRB in 1% acetic acid for 10 minutes. • 5. SRB was removed and the cultures were quickly* rinsed 5 times with 1% acetic acid to remove unbound dye.** • 6. Cultures were air-dried overnight until there is no visible moisture. • 7. The cellular protein-bound SRB was dissolved with 200 uL unbuffered Tris base (10 mM, pH 10.5) for 30 minutes on a rocking platform shaker. • 8. Absorbance was read at 540 nm. • * quickly performing rinsing process is to prevent desorption of protein-bound SRB • ** completely remove residual wash solution by sharply flicking plates over sink. Fixation of Cells Attached to the Plastic Substratum
as §2

[5] = tested on: DU 145 prostate cancer cell line; test: Cytotoxicity, SRB assay, DU 145; assay type: cell-based, human; conditions: Homo sapiens
Procedure: as §1, §2

[6] = tested on: PC-3 bone metastatic prostate cancer cell line; test: Cytotoxicity, SRB assay, PC-3; assay type: cell-based, human; conditions: Homo sapiens
Procedure: PPC-1, LNCaP, TSU, PC-3, and DU145 were grown in PRMI-1640 medium containing 2 mM L-glutamine supplemented with 10% fetal bovine serum (FBS). Cells were maintained in a 5% CO2/95% air humidified atomosphere at 37° C.
as §3, §2

[7] = tested on: HT-29 colorectal adenocarcinoma cell line; test: Cytotoxicity, SRB assay, HT-29; assay type: cell-based, human; conditions: Homo sapiens
Procedure: as §1, §2

PC-3 cells = test: Induction of apoptosis, PC-3; assay type: cell-based, human
Procedure: (§4) The ability of DJ 1-31, DJ 1-29, S-NTBA and Compound V to induce apoptosis in different prostate cancer cell lines (DU 145, PC-3, TSU, PPC-1 and LNCaP), in other cancer cell lines (TCCSUP, HT-29 and MCF-7) and in a control cell line (CV-1) was determined and the results are shown in Table 6.

TSU cells = test: Induction of apoptosis, TSU; assay type: cell-based, human
Procedure: as §4

TCCSUP cells = test: Induction of apoptosis, TCCSUP; assay type: cell-based, human
Procedure: as §4

HT-29 cells = test: Induction of apoptosis, HT-29; assay type: cell-based, human
Procedure: as §4

MCF-7 cells = test: Induction of apoptosis, MCF-7; assay type: cell-based
Procedure: as §4

PPC-1 cells = test: Induction of apoptosis, PPC-1; assay type: cell-based, human
Procedure: as §4

LNCaP cells = test: Induction of apoptosis, LNCaP; assay type: cell-based, human
Procedure: as §4

DU 145 cells = test: Induction of apoptosis, DU 145; assay type: cell-based, human
Procedure: as §4

CV-1 cells = test: Induction of apoptosis, CV-1; assay type: cell-based, African green monkey
Procedure: as §4

[8] = tested on: MCF-7 breast adenocarcinoma cell line; test: Cytotoxicity, SRB assay, MCF-7; assay type: cell-based; conditions: Homo sapiens, Example 4
Procedure: as §3, §2

[9] = 24 h, read-out: IC50 LNCaP 24 hr treatment
[10] = 144 h, read-out: IC50 LNCaP 6 day treatment
[11] = 24 h, read-out: IC50 CV-1 24 hr treatment
[12] = 96 h, read-out: IC50 CV-1 4 day treatment
[13] = 24 h, read-out: IC50 PC-3 24 hr treatment
[14] = 96 h, read-out: IC50 PC-3 4 day treatment

Molecule `C[C@](O)(CSc1ccc(NC(=O)CBr)cc1)C(=O)Nc1ccc(C#N)c(C(F)(F)F)c1` [R-CTF-T-BA-1] has an IC50 [1, 9] of 11.2 µM, an IC50 [1, 10] of 8.1 µM and an IC50 ([1]; read-out: IC50 LNCaP) of 3.2 ± 0.4 µM. The IC50 ([2]; PPC-1, read-out: IC50 PPC-1) was 1.3 ± 0.1 µM, the IC50 [3] was 3.8 ± 0.5 µM and the IC50 [4] was 0.6 ± 0.1 µM. The IC50 (CV-1 control cell line; [11]) was 23.4 ± 1.6 µM, the IC50 (CV-1 control cell line; [12]) was 13.9 µM and the IC50 (CV-1 control cell line; read-out: IC50 CV-1 (Control)) was 10.8 ± 0.5 µM. The IC50 ([5]; DU-145, read-out: IC50 DU145) was 3.1 ± 0.1 µM, the IC50 [6, 13] was 22.1 µM and the IC50 [6, 14] was 16.8 µM. For the same molecule, the IC50 ([6]; read-out: IC50 PC-3) was 2.6 ± 0.1 µM and the IC50 ([7]; HT-29, read-out: IC50 HT-29) was 1.6 ± 0.03 µM.
For `C[C@](O)(COc1ccc(NC(=O)CCl)cc1)C(=O)Nc1ccc([N+](=O)[O-])c(C(F)(F)F)c1` [DJ 1-31], the “Enrichment factor PC-3” value (PC-3 cells) was 0.594, the “Enrichment factor TSU” value (TSU cells) was 0.848 and the “Enrichment factor TCCSUP” value (TCCSUP cells) was 0.471. The “Enrichment factor HT-29” value (HT-29 cells) was 1.205, the “Enrichment factor MCF-7” value (MCF-7 cells) was 0.938 and the IC50 ([1]; 24 h, read-out: IC50 LNCaP) was 2.9 ± 1.2 µM. The IC50 ([1]; 96 h, read-out: IC50 LNCaP) was 3.3 ± 0.4 µM, the IC50 ([2]; PPC-1, 24 h, read-out: IC50 PPC-1) was 1.9 ± 0.1 µM and the IC50 ([2]; PPC-1, 96 h, read-out: IC50 PPC-1) was 1.9 ± 0.1 µM. For the same molecule, the IC50 ([3]; 24 h) was 2.1 ± 0.3 µM, the IC50 ([3]; 96 h) was 2.1 ± 0.3 µM and the “Enrichment factor PPC-1” value (PPC-1 cells) was 1.312. The IC50 ([4]; 24 h) was 1.3 ± 0.1 µM, the IC50 ([4]; 96 h) was 1.1 ± 0.1 µM and the “Enrichment factor LNCaP” value (LNCaP cells) was 1.374. The IC50 (CV-1 control cell line; 24 h, read-out: IC50 CV-1) was 5.8 ± 0.3 µM, the IC50 (CV-1 control cell line; 96 h, read-out: IC50 CV-1) was 5.3 ± 0.2 µM and the “Enrichment factor DU 145” value (DU 145 cells) was 2.500. The IC50 ([5]; DU-145, 24 h, read-out: IC50 DU 145) was 1 ± 0.2 µM, the IC50 ([5]; DU-145, 96 h, read-out: IC50 DU 145) was 0.7 ± 0.1 µM and the IC50 ([6]; 24 h, read-out: IC50 PC-3) was 5.4 ± 0.8 µM. The IC50 ([6]; 96 h, read-out: IC50 PC-3) was 5.3 ± 0.8 µM, the IC50 ([7]; HT-29, 24 h, read-out: IC50 HT-29) was 5.4 ± 0.1 µM and the IC50 ([7]; HT-29, 96 h, read-out: IC50 HT-29) was 3.7 ± 0.7 µM. The “Enrichment factor CV-1” value (CV-1 cells) was 0.702, the IC50 ([8]; MCF7, 24 h, drug incubation time 1 day) was 15.8 ± 2.7 µM and the IC50 ([8]; MCF7, 96 h, drug incubation time 4 day) was 14 ± 1.1 µM.
In the case of `C[C@](O)(CSc1ccc(NC(=O)CCl)cc1)C(=O)Nc1ccc(C#N)c(C(F)(F)F)c1` [R-CTF-T-CA-1], the IC50 [1, 9] is reported as 3.5 µM, the IC50 [1, 10] is reported as 1.7 µM and the IC50 ([1]; read-out: IC50 LNCaP) is reported as 1.1 ± 0.2 µM. It also gave an IC50 ([2]; PPC-1, read-out: IC50 PPC-1) of 2.5 ± 0.1 µM, an IC50 [3] of 1.8 ± 0.2 µM and an IC50 [4] of 1.5 ± 0.2 µM. The IC50 (CV-1 control cell line; [11]) was 6.2 ± 0.2 µM, the IC50 (CV-1 control cell line; [12]) was 4.2 µM and the IC50 (CV-1 control cell line; read-out: IC50 CV-1 (Control)) was 2.7 ± 1 µM. The IC50 ([5]; DU-145, read-out: IC50 DU145) was 2.6 ± 0.1 µM, the IC50 [6, 13] was 5.8 µM and the IC50 [6, 14] was 4.3 µM. It also gave an IC50 ([6]; read-out: IC50 PC-3) of 6.1 ± 0.5 µM and an IC50 ([7]; HT-29, read-out: IC50 HT-29) of 6.4 ± 0.5 µM.
